Experimental data as given in ChEMBL document CHEMBL1158872, “Four new bioactive polybrominated diphenyl ethers of the sponge Dysidea herbacea from West Sumatra, Indonesia” (J Nat Prod, 1997).
Converted amounts (≈) assume the structure as drawn. The source made the active and inactive calls. The calls are words filed in the database; no cut-off is given here.

Legend:
Cladosporium cucumerinum [1] = experiment: Antimicrobial activity against Cladosporium cucumerinum at 50 nmol after 2 days by TLC based bioautography method; type: functional
Cladosporium cucumerinum [2] = experiment: Antimicrobial activity against Cladosporium cucumerinum at 25 nmol after 2 days by TLC based bioautography method; type: functional
[3] = Toxicity against Artemia salina; type: organism-based; settings: in vivo
Escherichia coli = experiment: Antimicrobial activity against Escherichia coli; type: functional, organism-based

SMILES: Oc1c(Br)c(Br)c(Br)c(Br)c1Oc1ccc(Br)cc1Br
- inhibition zone (IZ) (Cladosporium cucumerinum [1]): 8 mm
- inhibition zone (IZ) (Cladosporium cucumerinum [2]): 5 mm
- LC50 [3]: 0.94 µg/mL (≈ 1.43 µM)
- Activity (Escherichia coli): inactive

SMILES: Oc1c(Br)c(Br)c(Br)c(Br)c1Oc1ccccc1Br
- inhibition zone (IZ) (Cladosporium cucumerinum [1]): 14 mm
- inhibition zone (IZ) (Cladosporium cucumerinum [2]): 7 mm
- LC50 [3]: 0.96 µg/mL (≈ 1.65 µM)
- Activity (Escherichia coli): inactive

SMILES: Oc1cc(Br)c(Br)c(Br)c1Oc1ccccc1Br
- inhibition zone (IZ) (Cladosporium cucumerinum [1]): 13 mm
- inhibition zone (IZ) (Cladosporium cucumerinum [2]): 8 mm
- LC50 [3]: 3.3 µg/mL (≈ 6.58 µM)
- Activity (Escherichia coli): inactive

SMILES: COc1c(Br)cc(Br)c(Br)c1Oc1ccccc1Br
- LC50 [3]: 26.2 µg/mL (≈ 50.9 µM)
- Activity (Escherichia coli): inactive

SMILES: Oc1c(Br)cc(Br)cc1Oc1ccc(Br)cc1Br
- inhibition zone (IZ) (Cladosporium cucumerinum [1]): 3.5 mm
- inhibition zone (IZ) (Cladosporium cucumerinum [2]): 1.5 mm
- LC50 [3]: 8.66 µg/mL (≈ 17.3 µM)
- Activity (Escherichia coli): inactive
